Measurements taken from patent US20230391785A1, “NITROGEN-CONTAINING HETEROCYCLIC COMPOUND, METHOD FOR PREPARING SAME AND USE OF SAME” (280 Bio, Inc., priority 2021, published 2023).

Tests used:
Type in all cases: cell-based
[1] = tested on: AGS gastric cancer cell line (KRAS G12D mutation); experiment: Proliferation inhibition measured by CTG (CellTiter Glo), AGS; settings: Table 3; CTG, 120 hours incubation; class symbol; read-out: IC50 (AGS)
Text: (§1) NCI-H358 is a human non-small cell lung cancer cell line with KRAS G12C mutation; PANC-1 and AsPC-1 are pancreatic cancer cell lines with KRAS G12D mutation; AGS is a gastric cancer cell line with KRAS G12D mutation; A427 is a lung cancer cell line with KRAS G12D mutation; THP-1 is a leukemia cell line with NRAS G12D mutation; Hs 578T is a breast cancer cell line with HRAS G12D mutation; SW480 is a colon cancer cell lines with KRAS G12V mutation; A375 is a wild type malignant melanoma cell line. The proliferation inhibitory effect of the compounds on various mutations was evaluated by determining the proliferation inhibitory activity of the compounds on these cell lines.
(§2) The assay was conducted on either 384-well plates or 96-well plates. The procedures are as follows:
(§3) The cell suspensions were added to 384- or 96-well plates (384-well plate: 40 μL; 96-well plate: […]) except for peripheral wells. The plates were incubated in a carbon dioxide incubator overnight. Prepared compounds (10 concentration gradients by serial 3-fold dilution) were added to the wells. The cell plates were incubated in a carbon dioxide incubator for 120 hours. CellTiter Glo reagent (384 well plate: 25 μL; 96 well plate: 100 μL) was added to the 384- or 96-well plates. The plates were shaken for 10 minutes away from light, and incubated for 10 minutes. The plates were read by EnVision system. Inhibition curves were plotted using XLFit and IC50 values were calculated. “IC50>10 μM” is denoted by “*”, “10 μM≥IC50>1 μM” is denoted by “**”, “1 μM≥IC50>100 nM” is denoted by “***”, and “IC50≤100 nM” is denoted by “****”.

[2] = tested on: SW480 colon cancer cell line (KRAS G12V mutation); experiment: Proliferation inhibition measured by CTG (CellTiter Glo), SW480; settings: Homo sapiens, Table 3, 120 hours incubation, class symbol, read-out: IC50 (SW480)
Text: as §1, §2, §3

[3] = tested on: A375 wild type malignant melanoma cell line; experiment: Proliferation inhibition measured by CTG (CellTiter Glo), A375; settings: Homo sapiens, A-375; Table 3; CTG, 120 hours incubation; class symbol; read-out: IC50 (A375)
Text: as §1, §2, §3

[4] = tested on: NCI-H358 cells (KRAS G12C mutation); experiment: Proliferation inhibition measured by CTG (CellTiter Glo), NCI-H358; settings: Homo sapiens, Table 3, CTG, 120 hours incubation, class symbol, read-out: IC50 (H358)
Text: as §1, §2, §3

IC50 [1] [nM] | IC50 [2] [nM] | IC50 [3] [nM] | IC50 [4] [nM] | SMILES
100 to 1000 | 100 to 1000 | 1000 to 10000 | 100 to 1000 | C[C@@H]1Cn2cncc2CN1c1nc(O[C@H]2CCN(C)C2)nc2c1CCN(c1cccc3cccc(Cl)c13)C2 [Compound 71]
100 to 1000 | 100 to 1000 | 1000 to 10000 | 100 to 1000 | C[C@@H]1Cn2cncc2CN1c1nc(OC2CN(C)C2)nc2c1CCN(c1cccc3cccc(Cl)c13)C2 [Compound 74]
≤ 100 | ≤ 100 | ≤ 100 | ≤ 100 | [2H]C([2H])([2H])N1CCC[C@H]1COc1nc2c(c(N3Cc4cncn4C[C@H]3C)n1)CCN(c1cccc3cccc(Cl)c13)C2 [Compound 77]
≤ 100 | ≤ 100 | ≤ 100 | ≤ 100 | C[C@@H]1Cn2cnc(F)c2CN1c1nc(OC[C@@H]2CCCN2C)nc2c1CCN(c1cc(O)cc3cccc(Cl)c13)C2 [Compound 78]
≤ 100 | ≤ 100 | ≤ 100 | – | C[C@@H]1Cn2cncc2CN1c1nc(OC[C@@H]2CCCN2C)nc2c1CCN(c1cc(OC(=O)C(C)(C)C)cc3cccc(Cl)c13)C2 [Compound 79]
≤ 100 | ≤ 100 | 100 to 1000 | ≤ 100 | C[C@@H]1Cn2cncc2CN1c1nc(OC[C@@H]2CCCN2C)nc2c1CCN(c1cccc3cccnc13)C2 [Compound 83]
100 to 1000 | 100 to 1000 | 1000 to 10000 | 1000 to 10000 | C[C@@H]1Cn2cncc2CN1c1nc(OC[C@@H]2CCCN2C)nc2c1CCN(c1cccc3c1CCCC3)C2 [Compound 84]
100 to 1000 | 100 to 1000 | 1000 to 10000 | 100 to 1000 | COc1cc(N2CCc3c(nc(OC[C@@H]4CCCN4C)nc3N3Cc4cncn4C[C@H]3C)C2)c2c(Cl)cccc2c1 [Compound 85]
≤ 100 | ≤ 100 | ≤ 100 | ≤ 100 | C[C@@H]1Cn2cnc(Cl)c2CN1c1nc(OCC2CCCN2C)nc2c1CCN(c1cccc3cccc(Cl)c13)C2 (stereo partly drawn) [Compound 86]
≤ 100 | ≤ 100 | 100 to 1000 | ≤ 100 | C[C@@H]1Cn2cnc(F)c2CN1c1nc(OC[C@@H]2CCCN2C)nc2cc(-c3cccc4cccc(Cl)c34)ccc12 [Compound 88]
≤ 100 | ≤ 100 | ≤ 100 | ≤ 100 | C[C@@H]1Cn2cnc(F)c2CN1c1nc(OC[C@@H]2CCCN2C)nc2cc(-c3cc(O)cc4cccc(Cl)c34)ccc12 [Compound 91]
≤ 100 | ≤ 100 | ≤ 100 | ≤ 100 | C[C@@H]1Cn2cnc(F)c2CN1c1nc(OC[C@@H]2CCCN2C)nc2cc(-c3cc(OC(=O)C(C)(C)C)cc4cccc(Cl)c34)ccc12 [Compound 92]
≤ 100 | ≤ 100 | – | – | C[C@@H]1Cn2cnc(F)c2CN1c1nc(OC[C@@H]2CCCN2C)nc2c1CCN(c1cc(OC(=O)C(C)(C)C)cc3cccc(Cl)c13)C2 [Compound 96]
≤ 100 | ≤ 100 | ≤ 100 | ≤ 100 | C[C@@H]1Cn2cnc(F)c2CN1c1nc(OC[C@@H]2CCCCN2C)nc2c1CCN(c1cccc3cccc(Cl)c13)C2 [Compound 99]
≤ 100 | ≤ 100 | ≤ 100 | ≤ 100 | CC(C)[C@@H](N)C(=O)Oc1cc(N2CCc3c(nc(OC[C@@H]4CCCN4C)nc3N3Cc4c(F)ncn4C[C@H]3C)C2)c2c(Cl)cccc2c1 [Compound 101]

SMILES | IC50 [1] [nM] | IC50 [2] [nM] | IC50 [3] [nM] | IC50 [4] [nM]
C[C@@H]1Cn2cncc2CN1c1nc(OC[C@@H]2CCCN2C)nc2c1CCN(c1cc(OC(=O)N(C)C)cc3cccc(Cl)c13)C2 [Compound 82] | ≤ 100 | 100 to 1000 | 100 to 1000 | 100 to 1000
C[C@@H]1Cn2cnc(F)c2CN1c1nc(OC[C@@H]2CCCN2C)nc2c1CCN(c1cc(OC(=O)N(C)C)cc3cccc(Cl)c13)C2 [Compound 97] | ≤ 100 | ≤ 100 | 100 to 1000 | ≤ 100
CNC(=O)Oc1cc(N2CCc3c(nc(OC[C@@H]4CCCN4C)nc3N3Cc4c(F)ncn4C[C@H]3C)C2)c2c(Cl)cccc2c1 [Compound 98] | ≤ 100 | ≤ 100 | ≤ 100 | ≤ 100
